Among the data in US7503965B2, “Azo compound, ink composition, and colored object” (Nippon Kayaku Kabushiki Kaisha, priority 2004, dated 2009) are solubility values, retold here.

A word on the solubility: it is the dissolved amount per volume that the medium holds. A lower solubility goes with little dissolved substance.

This data set is described as follows: solubility in water (ammonia alkali) by filter paper spot. In kind it is physicochemical. Conditions: aqueous buffer.
Regarding `Nc1c(N=Nc2ccc3c(O)c(N=Nc4ccc(N=Nc5c(C(=O)O)nn(-c6ccc(S(=O)(=O)O)cc6)c5O)c(S(=O)(=O)O)c4)c(S(=O)(=O)O)cc3c2S(=O)(=O)O)cc(S(=O)(=O)O)c2cc(S(=O)(=O)O)c(N=Nc3ccc([N+](=O)[O-])cc3S(=O)(=O)O)c(O)c12` [compound 1], the solubility was no less than 100 mg/mL.
The result for `Nc1c(N=Nc2ccc3c(O)c(N=Nc4cc(S(=O)(=O)O)c(N=Nc5c(C(=O)O)nn(-c6ccc(S(=O)(=O)O)cc6)c5O)cc4S(=O)(=O)O)c(S(=O)(=O)O)cc3c2S(=O)(=O)O)cc(S(=O)(=O)O)c2cc(S(=O)(=O)O)c(N=Nc3ccc([N+](=O)[O-])cc3S(=O)(=O)O)c(O)c12` [compound 9] reads no less than 100 mg/mL.
With `Nc1c(N=Nc2ccc3c(O)c(N=Nc4ccc(S(=O)(=O)O)c(/N=N/c5c(C(=O)O)nn(-c6ccc(S(=O)(=O)O)cc6)c5O)c4)c(S(=O)(=O)O)cc3c2S(=O)(=O)O)cc(S(=O)(=O)O)c2cc(S(=O)(=O)O)c(N=Nc3ccc([N+](=O)[O-])cc3S(=O)(=O)O)c(O)c12` [compound 13] the figure was no less than 100 mg/mL; with `Nc1c(N=Nc2ccc3c(O)c(N=Nc4ccc(N=Nc5c(C(=O)O)nn(-c6cc(S(=O)(=O)O)ccc6S(=O)(=O)O)c5O)c(S(=O)(=O)O)c4)c(S(=O)(=O)O)cc3c2S(=O)(=O)O)cc(S(=O)(=O)O)c2cc(S(=O)(=O)O)c(N=Nc3ccc([N+](=O)[O-])cc3S(=O)(=O)O)c(O)c12` [compound 21], no less than 100 mg/mL.
The result for `Nc1c(N=Nc2ccc3c(O)c(N=Nc4ccc(N=Nc5c(C(=O)O)nn(-c6ccc(S(=O)(=O)O)cc6)c5O)c(S(=O)(=O)O)c4)c(S(=O)(=O)O)cc3c2S(=O)(=O)O)cc(S(=O)(=O)O)c2cc(S(=O)(=O)O)c(N=Nc3ccc(S(=O)(=O)O)cc3[N+](=O)[O-])c(O)c12` [compound 22] reads no less than 100 mg/mL; that for `Nc1c(N=Nc2ccc3c(O)c(N=Nc4cc(S(=O)(=O)O)c(N=Nc5c(C(=O)O)nn(-c6ccc(S(=O)(=O)O)cc6)c5O)cc4S(=O)(=O)O)c(S(=O)(=O)O)cc3c2S(=O)(=O)O)cc(S(=O)(=O)O)c2cc(S(=O)(=O)O)c(N=Nc3ccc(S(=O)(=O)O)cc3[N+](=O)[O-])c(O)c12` [compound 23], no less than 100 mg/mL.
`COc1cc([N+](=O)[O-])c(S(=O)(=O)O)cc1N=Nc1c(S(=O)(=O)O)cc2c(S(=O)(=O)O)cc(N=Nc3ccc4c(O)c(N=Nc5ccc(N=Nc6c(C(=O)O)nn(-c7ccc(S(=O)(=O)O)cc7)c6O)c(S(=O)(=O)O)c5)c(S(=O)(=O)O)cc4c3S(=O)(=O)O)c(N)c2c1O` [compound 24] gave a solubility of no less than 100 mg/mL.
Turning to `Nc1c(N=Nc2ccc3c(O)c(N=Nc4cc(Cl)c(N=Nc5c(C(=O)O)nn(-c6ccc(S(=O)(=O)O)cc6)c5O)c(S(=O)(=O)O)c4)c(S(=O)(=O)O)cc3c2S(=O)(=O)O)cc(S(=O)(=O)O)c2cc(S(=O)(=O)O)c(N=Nc3ccc([N+](=O)[O-])cc3S(=O)(=O)O)c(O)c12` [compound 25], the solubility was no less than 100 mg/mL.
The result for `Nc1c(N=Nc2ccc3c(O)c(N=Nc4cc(C(=O)O)c(N=Nc5c(C(=O)O)nn(-c6ccc(S(=O)(=O)O)cc6)c5O)c(S(=O)(=O)O)c4)c(S(=O)(=O)O)cc3c2S(=O)(=O)O)cc(S(=O)(=O)O)c2cc(S(=O)(=O)O)c(N=Nc3ccc([N+](=O)[O-])cc3S(=O)(=O)O)c(O)c12` [compound 26] reads no less than 100 mg/mL.
The result for `Nc1c(N=Nc2ccc3c(O)c(N=Nc4ccc(N=Nc5c(C(=O)O)nn(-c6cc(C(=O)O)cc(C(=O)O)c6)c5O)c(S(=O)(=O)O)c4)c(S(=O)(=O)O)cc3c2S(=O)(=O)O)cc(S(=O)(=O)O)c2cc(S(=O)(=O)O)c(N=Nc3ccc([N+](=O)[O-])cc3S(=O)(=O)O)c(O)c12` [compound 27] reads no less than 100 mg/mL.
